{"source": "paper PMC2785468", "about": "“Androgen Receptor Mutations Associated with Androgen Insensitivity Syndrome: A High Content Analysis Approach Leading to Personalized Medicine” (PLoS ONE, 2009)", "origin": "cited, not measured here", "key": {"F764L mutation": {"test_system": "F764L mutation", "set-up": "method as in PMID 7929841", "settings": "MMTV-luc reporter, transfected CV1 cells; cited from earlier work"}, "P766S": {"test_system": "P766S", "set-up": "method as in PMID 7929841", "settings": "cited from earlier work"}, "mutant F764L": {"biological_target": "mutant F764L", "settings": "transfected CHO cells; cited from earlier work"}, "R840C mutated receptor": {"test_system": "R840C mutated receptor", "settings": "transfected CV1 cells; cited from earlier work"}}, "data": [{"smiles": "C[C@]12CCC(=O)C[C@@H]1CC[C@@H]1[C@@H]2CC[C@]2(C)[C@@H](O)CC[C@@H]12", "note": "[DHT, dihydrotestosterone]", "values": [{"measurement": "transcriptional activity (in words)", "setting": "F764L mutation", "result": "significantly decreased transcriptional activity"}, {"measurement": "transcriptional activity, % of control", "setting": "P766S", "result": 9, "unit": "%"}, {"measurement": "Kd", "setting": "mutant F764L", "result": 0.1, "unit": "nM"}, {"measurement": "transcriptional activity, % of control", "setting": "R840C mutated receptor", "result": 67, "unit": "%"}]}]}
